Results published in patent US20070232614A1, “Therapeutic Agent for Nonviral Hepatitis” (Mitsubishi Pharma Corporation, priority 2004, published 2007).

How the values were obtained:
[1] = test system: severe alcoholic hepatitis; conditions: non-patent references 1 and 2; cited from earlier work
[2] = test system: concanavalin A-induced hepatitis; conditions: prophylactic administration before injection of concanavalin A; mouse; non-patent references 3 and 4; cited from earlier work
[3] = test system: concanavalin A-induced hepatitis; assay: Action on concanavalin A-induced hepatitis (plasma ALT 8 hr after Con A); assay type: in vivo, female BALB/c mouse; conditions: therapeutic administration 3 hr after Con A injection (20 mg/kg i.v.), mouse
Description: 20 mg/kg of concanavalin A (Con A, type V, manufactured by Sigma) was intravenously administered to female BALB/c mouse (purchased from Charles River Laboratories JAPA, INC.). […] The administration time in the prophylactic administration test of pentoxifylline (manufactured by Sigma) or anti-mouse TNF-α antibody (manufactured by Genzyme-Techne) was set according to the method of Shirin et al. [Journal of Hepatology, 29, 60-67 (1998)] or Gantner et al. [Hepatology, 21, 190-198 (1995)]. The administration time in the therapeutic administration test was always set to 3 hr after Con A injection. To be specific, pentoxifylline (100 mg/kg) was intraperitoneally administered 2 hr before or 3 hr after Con A injection, anti-mouse TNF-α antibody (250 μg, was intravenously administrated 15 minutes before or 3 hr after Con A injection, and plasma SALT was similarly measured 8 hr later.
In addition, the test compound (10 mg/kg) was intravenously administrated 15 minutes before or 3 hr after Con A injection, and plasma ALT concentration was similarly measured.
The results are shown in mean±standard error.

SMILES	effectiveness for severe alcoholic hepatitis [1]	inhibition of the progress of concanavalin A-induced hepatitis [2]	therapeutic effect in the hepatitis model (progress of concanavalin A-induced hepatitis, plasma ALT) [3]
CC(=O)CCCCn1c(=O)c2c(ncn2C)n(C)c1=O [pentoxifylline]	effective	inhibit the progress	do not inhibit progress
CC(=O)NC1(c2ccc(CN3CCN(c4ncccn4)CC3)cc2)CC1.Cl [test compound, N-(1-(4-((4-(pyrimidin-2-yl)piperazin-1-yl)methyl)phenyl)cyclopropyl)acetamide hydrochloride]	–	–	shows a therapeutic effect
